Experimental findings from US10836725B2, “Modulators of the integrated stress pathway” (Calico Life Sciences LLC, priority 2016, dated 2020) are described below.

The test system of the test is ATF4 luciferase reporter. As to the kind of experiment: ATF4-Luc assay in HEK293T cells carrying the ATF4 luciferase reporter (in vitro model of VWMD). The format is cell-based, human. The note with it: Homo sapiens, HEK-293T, 1 μg/mL tunicamycin, 7 hours, luminescence (One Glo). The procedure: In order to test exemplary compounds of the invention in a cellular context, a stable VWMD cell line was first constructed. The ATF4 reporter was prepared by fusing the human full-length ATF4 5′-UTR (NCBI Accession No. BC022088.2) in front of the firefly luciferase (FLuc) coding sequence lacking the initiator methionine as described in Sidrauski et al (eLife 2013). The construct was used to produce recombinant retroviruses using standard methods and the resulting viral supernatant was used to transduce HEK293T cells, which were then subsequently selected with puromycin to generate a stable cell line.
HEK293T cells carrying the ATF4 luciferase reporter were plated on polylysine coated 384-well plates (Greiner Bio-one) at 30,000 cells per well. Cells were treated the next day with 1 μg/mL tunicamycin and 200 nM of a compound of Formula (I) for 7 hours. Luminescence was measured using One Glo (Promega) as specified by the manufacturer. Cells were maintained in DMEM with L-glutamine supplemented with 10% heat-inactivated FBS (Gibco) and Antibiotic-Antimycotic solution (Gibco).
Table 2 below summarizes the EC50 data obtained using the ATF4-Luc assay for exemplary compounds of the invention.
In general terms: A reporter such as luciferase makes a cellular process visible.
Consider `O=C(COc1ccc(Cl)c(F)c1)NC12CCC(C(=O)NCc3cocn3)(CC1)C(O)C2` (stereo not drawn) [Compound 115, 4-[2-(4-chloro-3-fluorophenoxy)acetamido]-2-hydroxy-N-[(1,3-oxazol-4-yl)methyl]bicyclo[2.2.2]octane-1-carboxamide], for which the EC50 – broadly, the concentration that produces a half-maximal response – was above 2000 nM.
Turning to `COc1ccc(CNC(=O)C23CC(NC(=O)COc4ccc(Cl)c(F)c4)(C2)C3)cc1` [Compound 195, 3-[2-(4-chloro-3-fluorophenoxy)acetamido]-N-[(4-methoxyphenyl)methyl]bicyclo[1.1.1]pentane-1-carboxamide], the EC50 is above 2000 nM.
Consider `Cn1ccc(CNC(=O)C23CC(NC(=O)COc4ccc(Cl)c(F)c4)(C2)C3)n1` [Compound 179, 3-[2-(4-chloro-3-fluorophenoxy)acetamido]-N-[(1-methyl-1H-pyrazol-3-yl)methyl]bicyclo[1.1.1]pentane-1-carboxamide], for which the EC50 is above 2000 nM.
In the case of `COc1ccc(CNC(=O)C23CC(NC(=O)COc4ccc(Cl)c(F)c4)(C2)C3)cc1OC` [Compound 202, 3-[2-(4-chloro-3-fluorophenoxy)acetamido]-N-[(3,4-dimethoxyphenyl)methyl]bicyclo[1.1.1]pentane-1-carboxamide], the EC50 is above 2000 nM.
In the case of `O=C(COc1ccc(Cl)c(F)c1)NC12CCC(C(=O)NCc3cc(C(F)(F)F)ccn3)(CC1)C(O)C2` (stereo not drawn) [Compound 120, 4-[2-(4-chloro-3-fluorophenoxy)acetamido]-2-hydroxy-N-{[4-(trifluoromethyl)pyridin-2-yl]methyl}bicyclo[2.2.2]octane-1-carboxamide], the EC50 is below 250 nM.
Consider `Cn1ccnc1CNC(=O)C12CC(NC(=O)COc3ccc(Cl)c(F)c3)(C1)C2` [Compound 186, 3-[2-(4-chloro-3-fluorophenoxy)acetamido]-N-[(1-methyl-1H-imidazol-2-yl)methyl]bicyclo[1.1.1]pentane-1-carboxamide], for which the EC50 is above 2000 nM.
As for `Cn1cnc(CNC(=O)C23CC(NC(=O)COc4ccc(Cl)c(F)c4)(C2)C3)c1` [Compound 196, 3-[2-(4-chloro-3-fluorophenoxy)acetamido]-N-[(1-methyl-1H-imidazol-4-yl)methyl]bicyclo[1.1.1]pentane-1-carboxamide], the EC50 is above 2000 nM.
`O=C(COc1ccc(F)cc1)NC12CCC(C(=O)NCc3ccc(C(F)(F)F)cc3)(CC1)C(O)C2` (stereo not drawn) [Compound 123, 4-[2-(4-fluorophenoxy)acetamido]-2-hydroxy-N-{[4-(trifluoromethyl)phenyl]methyl}bicyclo[2.2.2]octane-1-carboxamide]: the EC50 was below 250 nM.
Consider `C[C@H](NC(=O)C12CC(NC(=O)COc3ccc(Cl)c(F)c3)(C1)C2)c1ccc(Cl)cc1` [Compound 183, 3-[2-(4-chloro-3-fluorophenoxy)acetamido]-N-[(1S)-1-(4-chlorophenyl)ethyl]bicyclo[1.1.1]pentane-1-carboxamide], for which the EC50 was above 2000 nM.
Take `Cc1ccc(CNC(=O)C23CC(NC(=O)COc4ccc(Cl)c(F)c4)(C2)C3)c(C)n1` [Compound 251, 3-[2-(4-chloro-3-fluorophenoxy)acetamido]-N-[(2,6-dimethylpyridin-3-yl)methyl]bicyclo[1.1.1]pentane-1-carboxamide]: the EC50 was above 2000 nM.
Take `Cc1ccsc1CNC(=O)C12CC(NC(=O)COc3ccc(Cl)c(F)c3)(C1)C2` [Compound 192, 3-[2-(4-chloro-3-fluorophenoxy)acetamido]-N-[(3-methylthiophen-2-yl)methyl]bicyclo[1.1.1]pentane-1-carboxamide]: the EC50 is above 2000 nM.
For the molecule `COc1c(F)cc(CNC(=O)C23CC(NC(=O)COc4ccc(Cl)c(F)c4)(C2)C3)cc1F` [Compound 206, 3-[2-(4-chloro-3-fluorophenoxy)acetamido]-N-[(3,5-difluoro-4-methoxyphenyl)methyl]bicyclo[1.1.1]pentane-1-carboxamide], the EC50 is above 2000 nM.
In the case of `CC(C)Cc1cc(CNC(=O)C23CC(NC(=O)COc4ccc(Cl)c(F)c4)(C2)C3)on1` [Compound 212, 3-[2-(4-chloro-3-fluorophenoxy)acetamido]-N-{[3-(2-methylpropyl)-1,2-oxazol-5-yl]methyl}bicyclo[1.1.1]pentane-1-carboxamide], the EC50 is above 2000 nM.
With `O=C(COc1ccc(Cl)c(F)c1)NC12CC(C(=O)NCc3ccc(Cl)c(Cl)c3)(C1)C2` [Compound 241, 3-[2-(4-chloro-3-fluorophenoxy)acetamido]-N-[(3,4-dichlorophenyl]methyl]bicyclo[1.1.1]pentane-1-carboxamide] the figure was above 2000 nM; with `O=C(COc1ccc(Cl)c(F)c1)NC12CC(C(=O)NCc3nnc4n3CCCC4)(C1)C2` [Compound 223, 3-[2-(4-chloro-3-fluorophenoxy)acetamido]-N-[(5,6,7,8-tetrahydro[1,2,4]triazolo[4,3-a]pyridin-3-yl)methyl]bicyclo[1.1.1]pentane-1-carboxamide], above 2000 nM; with `O=C(COc1ccc(Cl)c(F)c1)NC12CC(C(=O)NCc3cccc(OC(F)(F)F)c3)(C1)C2` [Compound 161, 3-[2-(4-chloro-3-fluorophenoxy)acetamido]-N-{[3-(trifluoromethoxy)phenyl]methyl}bicyclo[1.1.1]pentane-1-carboxamide], above 2000 nM.
Next, `O=C(COc1ccc(Cl)c(F)c1)NC12CCC(C(=O)NCc3ccc(C(F)(F)F)cn3)(CC1)C(O)C2` (stereo not drawn) [Compound 106]: below 250 nM; `O=C(COc1ccc(Cl)cc1)NC12CC(C(=O)NCCOc3cccc(F)c3)(C1)C2` [Compound 104, 3-[2-(4-chlorophenoxy)acetamido]-N-[2-(3-fluorophenoxy)ethyl]bicyclo-[1.1.1]pentane-1-carboxamide]: 250 to 500 nM.
`COc1ccc(CNC(=O)C23CC(NC(=O)COc4ccc(Cl)c(F)c4)(C2)C3)cn1` [Compound 157, 3-[2-(4-chloro-3-fluorophenoxy)acetamido]-N-[(6-methoxypyridin-3-yl)methyl]bicyclo[1.1.1]pentane-1-carboxamide]: the EC50 is above 2000 nM.
With `O=C(COc1ccc(Cl)c(F)c1)NC12CC(C(=O)NCc3ccc(SC(F)(F)F)cc3)(C1)C2` [Compound 246, 3-[2-(4-chloro-3-fluorophenoxy)acetamido]-N-({4-[(trifluoromethyl)sulfanyl]phenyl}methyl)bicyclo[1.1.1]pentane-1-carboxamide], the EC50 was above 2000 nM.
Next, `O=C(COc1ccc(Cl)c(F)c1)NC12CC(C(=O)NCc3cccnn3)(C1)C2` [Compound 205, 3-[2-(4-chloro-3-fluorophenoxy)acetamido]-N-[(pyridazin-3-yl)methyl]bicyclo[1.1.1]pentane-1-carboxamide]: above 2000 nM.
In the case of `O=C(COc1ccc(Cl)c(F)c1)NC12CCC(C(=O)NCc3ccc(C(F)(F)F)cn3)(CC1)[C@H](O)C2` (single isomer, unassigned) [Compound 113], the half-maximal effective concentration (EC50) is below 250 nM.
As for `O=C(COc1ccc(Cl)c(Cl)c1)NC12CC(C(=O)NCc3ccc(OC(F)F)cn3)(C1)C2` [Compound 148, 3-[2-(3,4-dichlorophenoxy)acetamido]-N-{[5-(difluoromethoxy)pyridin-2-yl]methyl}bicyclo[1.1.1]pentane-1-carboxamide], the EC50 was below 250 nM.
As for `O=C(COc1ccc(Cl)c(F)c1)NC12CC(C(=O)NCc3ccc(OC(F)F)cc3)(C1)C2` [Compound 169, 3-[2-(4-chloro-3-fluorophenoxy)acetamido]-N-{[4-(difluoromethoxy)phenyl]methyl}bicyclo[1.1.1]pentane-1-carboxamide], the EC50 was 500 to 1000 nM.
With `O=C(COc1ccc(Cl)c(Cl)c1)NC12CC(C(=O)NCc3ccc(C(F)(F)F)nc3)(C1)C2` [Compound 150, 3-[2-(3,4-dichlorophenoxy)acetamido]-N-{[6-(trifluoromethyl)pyridin-3-yl]methyl}bicyclo[1.1.1]pentane-1-carboxamide] the figure was below 250 nM; with `O=C(COc1ccc(Cl)c(F)c1)NC12CC(C(=O)NCc3ccccc3)(C1)C2` [Compound 162, N-benzyl-3-[2-(4-chloro-3-fluorophenoxy)acetamido]bicyclo[1.1.1]pentane-1-carboxamide], above 2000 nM.
Regarding `COc1cc(F)cc(CNC(=O)C23CC(NC(=O)COc4ccc(Cl)c(F)c4)(C2)C3)c1` [Compound 209, 3-[2-(4-chloro-3-fluorophenoxy)acetamido]-N-[(3-fluoro-5-methoxyphenyl)methyl]bicyclo[1.1.1]pentane-1-carboxamide], the EC50 was above 2000 nM.
Regarding `CCc1nccc(CNC(=O)C23CC(NC(=O)COc4ccc(Cl)c(F)c4)(C2)C3)n1` [Compound 217, 3-[2-(4-chloro-3-fluorophenoxy)acetamido]-N-[(2-ethylpyrimidin-4-yl)methyl]bicyclo[1.1.1]pentane-1-carboxamide], the EC50 is above 2000 nM.
With `O=C(COc1ccc(Cl)c(F)c1)NC12CC(C(=O)NCCc3ccc(C(F)(F)F)cn3)(C1)C2` [Compound 213, 3-[2-(4-chloro-3-fluorophenoxy)acetamido]-N-{2-[5-(trifluoromethyl)pyridin-2-yl]ethyl}bicyclo[1.1.1]pentane-1-carboxamide], the EC50 is above 2000 nM.
Take `Cc1cnc(CNC(=O)C23CC(NC(=O)COc4ccc(Cl)c(F)c4)(C2)C3)s1` [Compound 178, 3-[2-(4-chloro-3-fluorophenoxy)acetamido]-N-[(5-methyl-1,3-thiazol-2-yl)methyl]bicyclo[1.1.1]pentane-1-carboxamide]: the EC50 was above 2000 nM.
